According to patent US4853221A, “Method for treating non-small cell lung cancer, head and neck cancers and breast cancer” (Warner-Lambert Company, priority 1987, dated 1989):

Key:
[1] = system: L5178Y; test: Inhibition of L5178Y cell growth in vitro; format: cell-based, murine
Method: (§1) Two leukemia cell lines (L1210 and L5178Y) and two solid tumor cell lines (Sarcoma 180 and Walker 256) were used in these studies.
(§2) Logarithmically growing L1210 cells (approximately 3×10^5 cells/ml) were diluted with Fischer's medium (containing 10% horse serum) to an approximate concentration of 5×10^4 cells/ml. Cells were planted in duplicate into 15 ml culture tubes containing either no drug or various amounts of drug, and incubated for 48 hours at 37° C. before being counted.
(§3) Trimetrexate was also evaluated in a similar manner side-by-side with methotrexate for its effect on the growth of three additional murine cell lines (L5178Y, Sarcoma-180, and Walkler-256) and three human cell lines (acute myelogenous leukemia K-562, T-cell 8402, and B-cell 8392), propagated in vitro.

[2] = system: Walker-256; test: Inhibition of Walker-256 cell growth in vitro; format: cell-based; settings: Mus musculus, 48 h; Murine Walker-256; read-out: ED50 (the source's name)
Method: as §1, §2, §3

[3] = system: Lung tumor; test: Human tumor cloning system, lung tumors; format: cell-based; settings: one hour, 8 specimens
Text: (§4) The activity of trimetrexate was compared with that of methotrexate in tests with a human tumor cloning system (Latham, et al., Proc. Am. Assoc. Cancer Res., 24: 278 (1983)). The data from these tests appear in Table III were the activities are expressed as the numbers of tumors with 50% or greater reduction in tumor colony forming units after one hour exposure to the drug.

[4] = system: Renal tumor; test: Human tumor cloning system, renal tumors; format: cell-based; settings: one hour, 6 specimens
Text: as §4

[5] = system: B-16 Melanoma; test: Antitumor activity against B-16 melanoma in mice; format: in vivo, mouse; settings: for Life Span % ILS / Life Span % T/C: ip daily, Days 1-9
Method: The growth inhibition properties of 5-methyl-6-[[(3,4,5-trimethoxyphenyl)amino]methyl]-2,4-quinazolinediamine (trimetrexate) against several transplanted murine tumors were evaluated employing the antitumor screening program of the Drug Evaluation Branch of the National Cancer Institute. The protocols for these tests is described in Cancer Chemotherapy Reports, 3: 1-103 (1972). The dosing schedules are results from these tests appear in Table IV.
In the L1210, P388, and B-16 melanoma models, results are expressed as a percentage of median control survival time. Percentage of increase in survival time and/or cures (30 day survivors) were the parameters used to measure the effectiveness of the agents. An initial median survival value for treated over control percentage (% T/C) equal to or greater than 125% was considered indicative of activity. For confirmatory activity, two multidose assays must show % T/C values equal to or greater than 150%.
Percent increase in median life span (% ILS) values appearing in the tables were calculated from the formula; 100×(median life span in days of treated mice minus median life span in days of untreated mice) divided by median life span in days of untreated control mice. That is, % ILS=[100×(T-C)]/C. % T/C and %ILS are directly interconvertible by the formula % ILS=% T/C -100.
B16 Melanotic melanoma was implanted into BD2F1 mice in the form of a tumor "brei" prepared from a 1:10 weight/volume homogenate of the tumor in balanced salt solution.
In all of the mouse tumor studies described above, routine controls consisted of matching ten normal mice (with no tumors) to each tumor-bearing treatment group and injecting them with the same drug at the same dosages, schedules, days of administration, and drug route as the tumor-bearing mice. In this way, drug-induced toxicity (lethality and weight loss) could be clearly separated from the effects of the drug on the tumors.

[6] = system: non-small cell lung cancer; test: Phase I clinical trials, non-small cell lung cancer; format: in vivo, human; settings: single agent
Method: (§5) Several Phase I clinical trials employing trimetrexate in human patients were carried out. In one study, 36 patients were treated with trimetrexate as a single agent at daily doses of 0.5 mg/m^2 /day to 12 mg/m^2 /day administered intravenously for five days.
(§6) In additional Phase I clinical studies, patients were administered trimetrexate with single intravenous doses ranging between 5 and 450 mg/m^2 and with weekly doses of slightly greater than 100 mg/m^2.

[7] = system: salivary gland cancer; test: Phase I clinical trials, salivary gland cancer; format: in vivo, human; settings: single agent
Method: as §5, §6

[8] = system: metastatic squamous cell cancer of the head and neck; test: Phase II trial, metastatic squamous cell cancer of the head and neck; format: in vivo, human
Method: The efficacy and safety of trimetrexate in the treatment of patients with metastatic squamous cell cancer of the head and neck was evaluated in an 11-center Phase II study.
The primary sites of disease in the patients included head and neck (not otherwise specified), hypopharynx, floor of the mouth, oropharynx, tongue, and other parts of the mouth, nasal cavity, and larynx.
Patients were initially treated intravenously with 8 mg/m^2 /day of trimetrexate on Days 1 through 5 of a 21-day treatment cycle. Patients were evaluated after each treatment course and were withdrawn from the study if progressive disease was documented. Patients were eligible to received six courses of treatment if stable disease was documented, or were eligible to receive continued treatment with trimetrexate if a response was documented.

[9] = optimal dose 20 mg/kg (dose range 20-0.62)
[10] = optimal dose 20 mg/kg (dose range 40-1.25)

COc1cc(NCc2ccc3nc(N)nc(N)c3c2C)cc(OC)c1OC [Trimetrexate, 5-methyl-6-[[(3,4,5-trimethoxyphenyl)amino]methyl]-2,4-quinazolinediamine]
IC50 ([1]; Mus musculus, 48 h, Murine L5178Y, read-out: ED50 (the source's name)): 2 nM | potency relative to methotrexate ([1]; on a molar basis): only slightly more effective on a molar basis | IC50 [2]: 5 nM | Number of Tumors with 50% or Greater Decrease in Tumor Colony Forming Units ([3]; trimetrexate 0.1 μg/ml): 1 | Number of Tumors with 50% or Greater Decrease in Tumor Colony Forming Units ([3]; trimetrexate 1.0 μg/ml): 1 | Number of Tumors with 50% or Greater Decrease in Tumor Colony Forming Units ([4]; trimetrexate 0.1 μg/ml): 1 | Number of Tumors with 50% or Greater Decrease in Tumor Colony Forming Units ([4]; trimetrexate 1.0 μg/ml): 1 | antitumor activity ([5]; intraperitoneally implanted): good activity | Life Span % ILS [5, 9]: 50% | Life Span % T/C [5, 9]: 150% | Life Span % ILS [5, 10]: 64% | Life Span % T/C [5, 10]: 164% | patients with favorable responses [6]: two | patients with favorable responses [7]: two | patients with partial response ([8]; 38 evaluable patients, initial 8 mg/m^2/day iv Days 1-5 of 21-day cycle): Ten | partial response rate ([8]; 95% confidence interval 12-40%, evaluable patients): 26% | patients with stable disease ([8]; in vivo): Nineteen | median duration of response ([8]; range 4.1-59+ weeks, ten responders): 12.2 weeks | median time to progressive disease ([8]; range 9.3-74+ weeks): 19.1 weeks
